Structures can show the parent of a compound that is named as a salt. Where two headings read alike, the source gives them in different places.
Legend:
A. baumannii [1] = assay: MIC, 20 diverse recent strains of A. baumannii (Example 10); assay type: cell-based, Acinetobacter baumannii; conditions: N 20 A. baumannii strains
Citrobacter spp = assay: MIC, recent Enterobacteriaceae clinical isolates: Citrobacter spp (Examples 7, 11); assay type: cell-based; conditions: for MIC: read-out: MIC
Escherichia coli = assay: MIC, recent Enterobacteriaceae clinical isolates: Escherichia coli (Examples 7, 11); conditions: Escherichia coli
A. baumannii [2] = assay: Neutropenic mouse thigh and lung infection models; conditions: neutropenic CD-1 mice, subcutaneous q3h, sulbactam+compound 1 at 4:1 ratio, 24 h, isolate containing AmpC, OXA-66, OXA-72, TEM-1, FIG. 4
Klebsiella pneumoniae = assay: MIC, recent Enterobacteriaceae clinical isolates: Klebsiella pneumoniae (Examples 7, 11)
Enterobacteriaceae = assay: organism not typed; assay type: cell-based
Enterobacter cloacae = assay: MIC, recent Enterobacteriaceae clinical isolates: Enterobacter cloacae (Examples 7, 11); assay type: cell-based

## CC1=C[C@@H]2CN(C(=O)N2OS(=O)(=O)O)[C@@H]1C(N)=O [Compound 1, (2S,5R)-2-carbamoyl-3-methyl-7-oxo-1,6-diazabicyclo[3.2.1]oct-3-en-6-yl hydrogen sulfate]
A. baumannii [1]
  MIC50: 64 µg/mL
  MIC90: > 64 µg/mL
  MIC Max: > 64 µg/mL
  MIC Min: 16 µg/mL
Citrobacter spp; Citrobacter braakii ARC3660, CTX-M-15
  MIC: 0.25 µg/mL
Citrobacter spp; Citrobacter freundii ARC3522, AmpC, TEM-1, CMY65
  MIC: 0.5 µg/mL
Citrobacter spp; Citrobacter freundii ARC3883, KPC-2
  MIC: 32 µg/mL
Citrobacter spp; Citrobacter freundii ARC3884, KPC-2
  MIC: 4 µg/mL
Citrobacter spp; Citrobacter freundii ARC3885, AmpH, TEM-1, SHV-5, CMY-6, CMY-13
  MIC: 4 µg/mL
Citrobacter spp; Citrobacter koseri ARC2001, ESBL
  MIC: 0.5 µg/mL
Citrobacter spp; Citrobacter koseri ARC2002, ESBL
  MIC: 0.5 µg/mL
Citrobacter spp; Citrobacter spp, N 7
  MIC range: 0.25 to 4 µg/mL
Citrobacter spp; Citrobacter spp, N 7, read-out: MIC50
  MIC50: 0.5 µg/mL
Citrobacter spp; Citrobacter spp, N 7, read-out: MIC90
  MIC90: 4 µg/mL
Escherichia coli
  MIC: 0.125 µg/mL
  MIC50: 0.5 µg/mL
  MIC90: 4 µg/mL
Escherichia coli; ATCC25922, Escherichia coli ARC4, none (ATCC 25922) CLSI control
  MIC: 8 µg/mL
Escherichia coli; Escherichia coli ARC4416, CTX-M-14+, TEM-1+
  MIC: 0.5 µg/mL
Escherichia coli; Escherichia coli ARC4418, CTX-M-14+, CMY-2+
  MIC: 0.25 µg/mL
Escherichia coli; Escherichia coli ARC4419, SHV-12+
  MIC: 0.25 µg/mL
Escherichia coli; Escherichia coli ARC4421, CTX-M-55, TEM-1+, CMY-2+
  MIC: 0.25 µg/mL
Escherichia coli; Escherichia coli ARC4429, TEM-1+, CMY-2+
  MIC: 0.25 µg/mL
Escherichia coli; Escherichia coli ARC4432, CTX-M-14+, TEM-1+, CMY-2+
  MIC: 0.25 µg/mL
Escherichia coli; Escherichia coli ARC4436, CTX-M-14+, TEM-1+
  MIC: 0.25 µg/mL
Escherichia coli; Escherichia coli ARC4449, CMY-2+, TEM-1+
  MIC: 0.5 µg/mL
Escherichia coli; Escherichia coli ARC4450, TEM-1+, OXA-1+, CMY-2+
  MIC: 2 µg/mL
Escherichia coli; Escherichia coli ARC4452, SHV-12+
  MIC: 0.25 µg/mL
Escherichia coli; Escherichia coli ARC4455, SHV-12+
  MIC: 0.25 µg/mL
Escherichia coli; Escherichia coli ARC4465, CMY-2+
  MIC: 0.25 µg/mL
Escherichia coli; Escherichia coli ARC4471, CMY-2+, OXA-1+, TEM-1+
  MIC: 4 µg/mL
Escherichia coli; Escherichia coli ARC4472, CMY-2+, TEM-1+
  MIC: 2 µg/mL
Escherichia coli; Escherichia coli ARC4477, CTX-M-15+, TEM-1+
  MIC: 2 µg/mL
Escherichia coli; Escherichia coli ARC4478, CTX-M-15+, CMY-2+
  MIC: 0.5 µg/mL
Escherichia coli; Escherichia coli ARC4479, CMY-42+, OXA-1+, OXA-9+, TEM-1+
  MIC: 32 µg/mL
Escherichia coli; Escherichia coli ARC4485, CMY-2+, OXA-1+, CTX-M-15+
  MIC: 0.5 µg/mL
Escherichia coli; Escherichia coli ARC4487, SHV-5+, DHA-1+, TEM-1+, OXA-1+, CMY-2+
  MIC: 4 µg/mL
A. baumannii [2]
  efficacy (mean delta log CFU): recover the activity
Klebsiella pneumoniae
  MIC50: 1 µg/mL
  MIC90: 4 µg/mL
Klebsiella pneumoniae; Klebsiella pneumoniae ARC4414, SHV-11
  MIC: 2 µg/mL
Klebsiella pneumoniae; Klebsiella pneumoniae ARC4420, SHV-11, SHV-12, DHA-1, OXA-1
  MIC: 1 µg/mL
Klebsiella pneumoniae; Klebsiella pneumoniae ARC4427, SHV-1, OXA-1
  MIC: 0.25 µg/mL
Klebsiella pneumoniae; Klebsiella pneumoniae ARC4434, SHV-11
  MIC: 2 µg/mL
Klebsiella pneumoniae; Klebsiella pneumoniae ARC4435, SHV-157
  MIC: 0.25 µg/mL
Klebsiella pneumoniae; Klebsiella pneumoniae ARC4446, SHV-11
  MIC: 2 µg/mL
Klebsiella pneumoniae; Klebsiella pneumoniae ARC4451, SHV-11, KPC-3
  MIC: 0.5 µg/mL
Klebsiella pneumoniae; Klebsiella pneumoniae ARC4457, SHV-11, DHA-1
  MIC: 0.5 µg/mL
Klebsiella pneumoniae; Klebsiella pneumoniae ARC4460, SHV-11, CTX-M15, OXA-1, NDM-1
  MIC: 4 µg/mL
Klebsiella pneumoniae; Klebsiella pneumoniae ARC4467, SHV-33, TEM-1, OXA-1, DHA-1
  MIC: 4 µg/mL
Klebsiella pneumoniae; Klebsiella pneumoniae ARC4468, SHV-1
  MIC: 8 µg/mL
Klebsiella pneumoniae; Klebsiella pneumoniae ARC4476, SHV-11, KPC-2, OXA-9[W117*]
  MIC: 4 µg/mL
Klebsiella pneumoniae; Klebsiella pneumoniae ARC4480, SHV-27
  MIC: 0.5 µg/mL
Klebsiella pneumoniae; Klebsiella pneumoniae ARC4483, SHV-11
  MIC: 1 µg/mL
Klebsiella pneumoniae; Klebsiella pneumoniae ARC4484, SHV-168
  MIC: 1 µg/mL
Klebsiella pneumoniae; Klebsiella pneumoniae ARC4488, SHV-11, CTX-M15, OXA-1, TEM-1
  MIC: 0.25 µg/mL
Klebsiella pneumoniae; Klebsiella pneumoniae ARC4490, SHV-11, CTX-M15, KPC-2, OXA-1
  MIC: 0.5 µg/mL
Klebsiella pneumoniae; Klebsiella pneumoniae ARC4495, SHV-60, LAP-2
  MIC: 4 µg/mL
Enterobacteriaceae
  MIC50: 0.5 µg/mL
  MIC90: 4 µg/mL
Enterobacteriaceae; Total Enterobacteriaceae, N 59
  MIC range: 0.125 to 32 µg/mL
Enterobacter cloacae; Enterobacter cloacae ARC4438, AmpC+, read-out: MIC
  MIC: 2 µg/mL
Enterobacter cloacae; Enterobacter cloacae ARC4439, AmpC+, LAP-2+, read-out: MIC
  MIC: 0.5 µg/mL
Enterobacter cloacae; Enterobacter cloacae ARC4444, AmpC+, MIR-8[I175L]
  MIC: 4 µg/mL
Enterobacter cloacae; Enterobacter cloacae ARC4458, AmpC+, ACT-2[V312M]
  MIC: 8 µg/mL
Enterobacter cloacae; Enterobacter cloacae ARC4461, AmpC+, TEM-1, read-out: MIC
  MIC: 0.25 µg/mL
Enterobacter cloacae; Enterobacter cloacae ARC4462, AmpC+, read-out: MIC
  MIC: 0.5 µg/mL
Enterobacter cloacae; Enterobacter cloacae ARC4473, SHV-5+, AmpC+, DHA-1+, TEM-1+, read-out: MIC
  MIC: 0.5 µg/mL
Enterobacter cloacae; Enterobacter cloacae ARC4489, AmpC+, read-out: MIC
  MIC: 1 µg/mL
Enterobacter cloacae; Enterobacter cloacae ARC4492, AmpC+, read-out: MIC
  MIC: 0.5 µg/mL
Enterobacter cloacae; Enterobacter cloacae ARC4494, OXA-1+, DHA-1+, AmpC+, read-out: MIC
  MIC: 0.25 µg/mL
Enterobacter cloacae; N 10
  MIC90: 4 µg/mL
  MIC range: 0.25 to 8 µg/mL
Enterobacter cloacae; N 10, read-out: MIC50
  MIC50: 0.5 µg/mL
